Four compounds from patent publication US20230085307A1, “PYRIDAZINONE COMPOUND AND HERBICIDE” (NISSAN CHEMICAL CORPORATION, priority 2019, published 2023) can be followed below.

Each structure is given as a SMILES string.

In experiment [1] the test system is Japanese bulrush. The experiment can be described thus: Test Example 2: herbicidal activity, application during weed generation under submerged conditions (Table 17, symbol B). In kind it is in vivo, Japanese bulrush (Schoenoplectus juncoides). The settings on record: AAH 320 g/ha; application during weed generation, submerged conditions. The essentials: (§1)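 Herbicide emulsion, diluted with water to the chosen amount, is applied onto 4 cm floodwater over alluvial soil where the weeds were co-sown and raised at 25–30° C. Application timing: 1–2 leaves. Assessment: three weeks afterwards.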

Experiment [2] deals with redroot pigweed. The experiment can be described thus: Test Example 4: herbicidal effect by soil treatment (Table 19, symbol N). In kind it is in vivo, redroot pigweed (Amaranthus retroflexus). The settings on record: amount of applied herbicide 320 g/ha. The essentials:
(§2)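 Emulsion of test compound, water-diluted to predetermined amount, sprayed on soil after sowing (seed depth ~1.5 cm, sterilized diluvial soil). Greenhouse, 25–30° C. Effect graded at three weeks post-spray.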

For experiment [3], the system named is blackgrass. The experiment can be described thus: Test Example 4: herbicidal effect by soil treatment (Table 19, symbol J). In kind it is in vivo, blackgrass (Alopecurus myosuroides). The settings on record: amount of applied herbicide 320 g/ha. The essentials:
as §2

For experiment [4], the system named is chickweed. The experiment in a line: Test Example 4: herbicidal effect by soil treatment (Table 19, symbol P). To be noted: amount of applied herbicide 320 g/ha. It is filed as in vivo, common chickweed (Stellaria media). The essentials: as §2
Experiment [5] concerns oval-leafed pondweed. The experiment in a line: Test Example 2: herbicidal activity, application during weed generation under submerged conditions (Table 17, symbol C). It is filed as in vivo, oval-leafed pondweed (Monochoria vaginalis). To be noted: AAH 320 g/ha; application during weed generation, submerged conditions. The essentials:
as §1

Experiment [6] relates to Chinese sprangletop. The experiment can be described thus: Test Example 3: herbicidal effect by foliage application, Wagner pot (Table 18, symbol D). It is filed as in vivo, chinese sprangletop (Leptochloa chinensis). The settings on record: 320 g/ha. The method, boiled down:
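Plants were sown in alluvial soil held under 0.1–0.5 cm standing water and grown 14 days in a greenhouse at 25–30 °C. An emulsifiable formulation, water-diluted to the set dose, was then sprayed onto the foliage, and effects were scored three weeks later using previously defined criteria.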

For experiment [7], the system named is barnyard grass. The experiment in a line: Test Example 4: herbicidal effect by soil treatment (Table 19, symbol H). It is filed as in vivo, barnyard grass (Echinochloa crus-galli). The settings on record: amount of applied herbicide 320 g/ha. The method, boiled down: as §2
Experiment [8] concerns chickweed. The experiment can be described thus: Test Example 5: herbicidal effect by foliage application, plastic box (Table 20, symbol P). It is filed as in vivo, common chickweed (Stellaria media). The settings on record: foliage application, 320 g/ha, three weeks after application. The method, boiled down:
(§3)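 Post-emergence foliar test in sterilized diluvial soil. Compound applied as water-diluted emulsion at a predetermined rate to 14-day-old plants; evaluation at three weeks.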

Experiment [9] deals with late watergrass. The experiment in a line: Test Example 2: herbicidal activity, application during weed generation under submerged conditions (Table 17, symbol A). It is filed as in vivo, late watergrass (Echinochloa oryzicola). To be noted: AAH 320 g/ha; application during weed generation, submerged conditions. The essentials:
as §1

Experiment [10] concerns oval-leafed pondweed. The experiment can be described thus: Test Example 1: herbicidal activity, application before weed generation under submerged conditions (Table 16, symbol C). In kind it is in vivo, oval-leafed pondweed (Monochoria vaginalis). To be noted: amount of applied herbicide 320 g/ha. The method, boiled down:
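Alluvial soil was flooded to 4 cm depth, weed seeds were sown mixed and 2.5-leaf rice seedlings were transplanted. On sowing day, the compound's emulsion, diluted in water to a set dose, was applied to the water surface. Plants grew at 25–30 °C and were scored 0–5 after three weeks.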

Experiment [11] has as its system false cleavers. The experiment can be described thus: Test Example 5: herbicidal effect by foliage application, plastic box (Table 20, symbol Q). It is filed as in vivo, false cleavers (Galium spurium). The settings on record: foliage application, 320 g/ha, three weeks after application. The essentials: as §3
Experiment [12] deals with lambsquarters. The experiment in a line: Test Example 5: herbicidal effect by foliage application, plastic box (Table 20, symbol O). In kind it is in vivo, lambsquarters (Chenopodium album). To be noted: foliage application, 320 g/ha, three weeks after application. The method, boiled down: as §3
For experiment [13], the system named is persian speedwell. The experiment can be described thus: Test Example 5: herbicidal effect by foliage application, plastic box (Table 20, symbol R). The settings on record: foliage application, 320 g/ha, three weeks after application. It is filed as in vivo, Persian speedwell (Veronica persica). The method, boiled down:
as §3

Experiment [14] deals with Italian ryegrass. The experiment in a line: Test Example 5: herbicidal effect by foliage application, plastic box (Table 20, symbol K). It is filed as in vivo, Italian ryegrass (Lolium multiflorum). The settings on record: foliage application, 320 g/ha, three weeks after application. The essentials: as §3
For experiment [15], the system named is wild oat. The experiment in a line: Test Example 4: herbicidal effect by soil treatment (Table 19, symbol I). It is filed as in vivo, wild oat (Avena fatua). To be noted: amount of applied herbicide 320 g/ha. The essentials:
as §2

The test system of experiment [16] is lambsquarters. The experiment in a line: Test Example 4: herbicidal effect by soil treatment (Table 19, symbol O). It is filed as in vivo, lambsquarters (Chenopodium album). To be noted: amount of applied herbicide 320 g/ha. The method, boiled down: as §2
For experiment [17], the system named is false cleavers. The experiment in a line: Test Example 4: herbicidal effect by soil treatment (Table 19, symbol Q). To be noted: amount of applied herbicide 320 g/ha. It is filed as in vivo, false cleavers (Galium spurium). The essentials: as §2

Consider `CCCC(=O)Oc1c(C)nn(C)c(=O)c1-c1c(-c2ccc(F)cc2OCC)sc2cc(C)ccc12` [3-058], for which, in experiment [1], the “herbicidal effect rating, B: Japanese bulrush” value (“herbicidal effect rating, B” for short) is recorded as 5 (Herbicidal rate of 90% or more (almost completely withered)). Besides, in experiment [2], the “N: redroot pigweed, herbicidal effect grade” value (“N: redroot pigweed” for short) is recorded as 5 (Herbicidal rate of 90% or more (almost completely withered)). Besides, in experiment [3], the “J: blackgrass, herbicidal effect grade” value is 3 (Herbicidal rate of 40% or more and less than 70%). In addition, the “P: chickweed, herbicidal effect grade” value is 4 (Herbicidal rate of 70% or more and less than 90%) in [4]; 5 (Herbicidal rate of 90% or more (almost completely withered)) in experiment [8]. For the same compound, the “herbicidal effect rating, C: oval-leafed pondweed” value (shortened to “herbicidal effect rating, C”) in experiment [5] is 4 (Herbicidal rate of 70% or more and less than 90%). Also, the “herbicidal effect on Chinese sprangletop (D)” value (from here on “herbicidal effect … (D)”) in experiment [6] is 4 (Herbicidal rate of 70% or more and less than 90%). In addition, the “H: barnyard grass, herbicidal effect grade” value (“H: barnyard grass” below) in [7] was 0 (Herbicidal rate of 5% or less (almost no effect)). Besides, the “herbicidal effect rating, A: late watergrass” value in [9] is 4 (Herbicidal rate of 70% or more and less than 90%). The “Herbicidal effect, C: oval-leafed pondweed” value (“Herbicidal effect, C” for short) in experiment [10] is 3 (Herbicidal rate of 40% or more and less than 70%). Moreover, the “Q: false cleavers, herbicidal effect grade” value (from here on “Q: false cleavers”) in experiment [11] was 5 (Herbicidal rate of 90% or more (almost completely withered)); in experiment [17] it was 1 (Herbicidal rate of 5% or more and less than 20%). Moreover, the “O: lambsquarters, herbicidal effect grade” value (from here on “O: lambsquarters”) in [12] and in experiment [16] was 5 (Herbicidal rate of 90% or more (almost completely withered)) throughout. Also, the “R: persian speedwell, herbicidal effect grade” value (“R: persian speedwell” for short) in [13] is given as 5 (Herbicidal rate of 90% or more (almost completely withered)). For the same compound, the “K: Italian ryegrass, herbicidal effect grade” value (“K: Italian ryegrass” for short) in [14] is listed as 5 (Herbicidal rate of 90% or more (almost completely withered)). In addition, the “I: wild oat, herbicidal effect grade” value in experiment [15] is 0 (Herbicidal rate of 5% or less (almost no effect)).
As to `CCCC(=O)Oc1c(C)nn(C)c(=O)c1-c1c(-c2ccccc2)sc2cc(OC)ccc12` [3-062], in [1], the “herbicidal effect rating, B” value is 3 (Herbicidal rate of 40% or more and less than 70%). Besides, the “N: redroot pigweed” value in [2] was 0 (Herbicidal rate of 5% or less (almost no effect)). In addition, the “J: blackgrass, herbicidal effect grade” value in experiment [3] is listed as 0 (Herbicidal rate of 5% or less (almost no effect)). Further, the “P: chickweed, herbicidal effect grade” value was 4 (Herbicidal rate of 70% or more and less than 90%) in experiment [4]; 5 (Herbicidal rate of 90% or more (almost completely withered)) in [8]. In addition, the “herbicidal effect rating, C” value in experiment [5] is 3 (Herbicidal rate of 40% or more and less than 70%). In addition, the “herbicidal effect … (D)” value in experiment [6] was 1 (Herbicidal rate of 5% or more and less than 20%). In addition, the “H: barnyard grass” value in experiment [7] is recorded as 0 (Herbicidal rate of 5% or less (almost no effect)). The “herbicidal effect rating, A: late watergrass” value in experiment [9] is 0 (Herbicidal rate of 5% or less (almost no effect)). Also, in experiment [10], the “Herbicidal effect, C” value was 4 (Herbicidal rate of 70% or more and less than 90%). For the same compound, the “Q: false cleavers” value was 4 (Herbicidal rate of 70% or more and less than 90%) in [11]; 2 (Herbicidal rate of 20% or more and less than 40%) in experiment [17]. The “O: lambsquarters” value in experiment [12] is 2 (Herbicidal rate of 20% or more and less than 40%); in [16], 0 (Herbicidal rate of 5% or less (almost no effect)). In experiment [13], the “R: persian speedwell” value is 3 (Herbicidal rate of 40% or more and less than 70%). The “K: Italian ryegrass” value in experiment [14] is 2 (Herbicidal rate of 20% or more and less than 40%). Besides, the “I: wild oat, herbicidal effect grade” value in experiment [15] is 0 (Herbicidal rate of 5% or less (almost no effect)).
For `CCCC(=O)Oc1c(C)nn(C)c(=O)c1-c1c(-c2ccc(OC)cc2)sc2cc(OC)ccc12` [3-069], the “herbicidal effect rating, B” value in experiment [1] is 3 (Herbicidal rate of 40% or more and less than 70%). Also, in experiment [2], the “N: redroot pigweed” value is recorded as 0 (Herbicidal rate of 5% or less (almost no effect)). Moreover, in experiment [3], the “J: blackgrass, herbicidal effect grade” value is 0 (Herbicidal rate of 5% or less (almost no effect)). The “P: chickweed, herbicidal effect grade” value in [4] was 3 (Herbicidal rate of 40% or more and less than 70%); in [8], 5 (Herbicidal rate of 90% or more (almost completely withered)). Moreover, the “herbicidal effect rating, C” value in experiment [5] was 4 (Herbicidal rate of 70% or more and less than 90%). The “herbicidal effect … (D)” value in [6] is on record as 0 (Herbicidal rate of 5% or less (almost no effect)). Further, the “H: barnyard grass” value in [7] was 0 (Herbicidal rate of 5% or less (almost no effect)). Besides, in experiment [9], the “herbicidal effect rating, A: late watergrass” value is reported as 0 (Herbicidal rate of 5% or less (almost no effect)). Moreover, in [10], the “Herbicidal effect, C” value was 2 (Herbicidal rate of 20% or more and less than 40%). For the same compound, the “Q: false cleavers” value was 4 (Herbicidal rate of 70% or more and less than 90%) in [11]; 0 (Herbicidal rate of 5% or less (almost no effect)) in experiment [17]. The figures for the “O: lambsquarters” value in experiment [12] and in experiment [16] were 5 (Herbicidal rate of 90% or more (almost completely withered)) and 0 (Herbicidal rate of 5% or less (almost no effect)), respectively. In [13], the “R: persian speedwell” value is 5 (Herbicidal rate of 90% or more (almost completely withered)). For the same compound, in experiment [14], the “K: Italian ryegrass” value was 3 (Herbicidal rate of 40% or more and less than 70%). Moreover, the “I: wild oat, herbicidal effect grade” value in [15] is on record as 0 (Herbicidal rate of 5% or less (almost no effect)).
Take `CCOc1ccc(-c2sc3cc(OC)ccc3c2-c2c(O)c(C)nn(C)c2=O)cc1` [3-072]: in [1], the “herbicidal effect rating, B” value is 2 (Herbicidal rate of 20% or more and less than 40%). Besides, the “N: redroot pigweed” value in experiment [2] was 2 (Herbicidal rate of 20% or more and less than 40%). In addition, in experiment [3], the “J: blackgrass, herbicidal effect grade” value is given as 0 (Herbicidal rate of 5% or less (almost no effect)). Also, the “P: chickweed, herbicidal effect grade” value in [4] and in experiment [8] was 5 (Herbicidal rate of 90% or more (almost completely withered)) throughout. In addition, the “herbicidal effect rating, C” value in [5] was 3 (Herbicidal rate of 40% or more and less than 70%). For the same compound, in experiment [6], the “herbicidal effect … (D)” value was 3 (Herbicidal rate of 40% or more and less than 70%). Further, in experiment [7], the “H: barnyard grass” value is recorded as 0 (Herbicidal rate of 5% or less (almost no effect)). Besides, the “herbicidal effect rating, A: late watergrass” value in experiment [9] is 3 (Herbicidal rate of 40% or more and less than 70%). Moreover, the “Herbicidal effect, C” value in [10] was 4 (Herbicidal rate of 70% or more and less than 90%). Besides, the “Q: false cleavers” value was 5 (Herbicidal rate of 90% or more (almost completely withered)) in experiment [11]; 1 (Herbicidal rate of 5% or more and less than 20%) in experiment [17]. In addition, the “O: lambsquarters” value in experiment [12] is 5 (Herbicidal rate of 90% or more (almost completely withered)); in experiment [16], 2 (Herbicidal rate of 20% or more and less than 40%). In addition, the “R: persian speedwell” value in [13] was 5 (Herbicidal rate of 90% or more (almost completely withered)). In addition, in experiment [14], the “K: Italian ryegrass” value is 4 (Herbicidal rate of 70% or more and less than 90%). Moreover, the “I: wild oat, herbicidal effect grade” value in experiment [15] is given as 0 (Herbicidal rate of 5% or less (almost no effect)).
